Tests used:
[1] = test system: HCV 1b replicon (Renilla luciferase reporter) in HUH-7 cells; assay: HCV replicon luciferase reporter assay; type: cell-based, Hepatitis C virus (strain 1b); settings: Huh-7, 96 h, 4 days, read-out: Potency in the 1b luciferase assay
Text: As a secondary assay, EC50 determinations from the replicon FRET assay were confirmed in a replicon luciferase reporter assay. Utilization of a replicon luciferase reporter assay was first described by Krieger et al (Krieger N, Lohmann V, and Bartenschlager R, J. Virol. 75(10):4614-4624 (2001)). The replicon construct described for our FRET assay was modified by inserting cDNA encoding a humanized form of the Renilla luciferase gene and a linker sequence fused directly to the 3′-end of the luciferase gene. This insert was introduced into the replicon construct using an Asc1 restriction site located in core, directly upstream of the neomycin marker gene. The adaptive mutation at position 1179 (serine to isoleucine) was also introduced (Blight K J, Kolykhalov, A A, Rice, C M, Science 290(5498):1972-1974). A stable cell line constitutively expressing this HCV replicon construct was generated as described above. The luciferase reporter assay was set up as described for the HCV replicon FRET assay with the following modifications. Following 4 days in a 37° C./5% CO2 incubator, cells were analyzed for Renilla Luciferase activity using the Promega Dual-Glo Luciferase Assay System. Media (100 μl) was removed from each well containing cells. To the remaining 50 μl of media, 50 μl of Dual-Glo Luciferase Reagent was added, and plates rocked for […] to 2 h at room temperature. Dual-Glo Stop & Glo Reagent (50 μl) was then added to each well, and plates were rocked again for an additional 10 min to 2 h at room temperature. Plates were read on a Packard TopCount NXT using a luminescence program.
The percentage inhibition was calculated using the formula below: […]
The values were graphed and analyzed using XLfit to obtain the EC50 value.

[2] = target: T1, HCV NS3/4A protease complex (Hepatitis C virus genotype 1a, UniProt P27958, C1454S/C1711G); assay: FRET peptide assay to monitor HCV NS3/4A proteolytic activity; type: biochemical
T1 construct: DNA encoding the recombinant HCV NS3/4A protease complex (amino acids 1027 to 1711) for these strains; inferred from pET21b vector and Ni-NTA purification; made in house; host or cells: Escherichia coli BL21 (DE3)
T1 sequence (P27958 1027-1711 C1454S/C1711G, one chain of several): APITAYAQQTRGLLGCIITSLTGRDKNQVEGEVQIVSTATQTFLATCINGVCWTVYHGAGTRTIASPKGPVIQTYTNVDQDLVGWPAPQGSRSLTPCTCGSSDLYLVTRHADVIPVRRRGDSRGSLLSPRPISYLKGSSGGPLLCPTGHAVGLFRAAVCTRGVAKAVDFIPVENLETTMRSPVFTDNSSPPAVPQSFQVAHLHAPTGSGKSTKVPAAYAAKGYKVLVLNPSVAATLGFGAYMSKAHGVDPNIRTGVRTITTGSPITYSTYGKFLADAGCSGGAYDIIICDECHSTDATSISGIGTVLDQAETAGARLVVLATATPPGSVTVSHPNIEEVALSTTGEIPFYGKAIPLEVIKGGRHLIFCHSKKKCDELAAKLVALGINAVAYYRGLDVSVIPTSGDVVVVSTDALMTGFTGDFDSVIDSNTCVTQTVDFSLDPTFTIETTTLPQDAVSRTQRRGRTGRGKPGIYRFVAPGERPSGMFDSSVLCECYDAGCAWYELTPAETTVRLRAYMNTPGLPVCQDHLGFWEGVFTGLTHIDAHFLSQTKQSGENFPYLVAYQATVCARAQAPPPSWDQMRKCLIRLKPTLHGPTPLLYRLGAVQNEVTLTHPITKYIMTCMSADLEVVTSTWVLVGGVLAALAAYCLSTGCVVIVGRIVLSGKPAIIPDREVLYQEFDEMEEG
Text: HCV NS3 protease complexes, derived from the BMS strain, H77 strain or J4L6S strain, were generated, as described below. These purified recombinant proteins were generated for use in a homogeneous assay (see below) to provide an indication of how effective compounds of the present disclosure would be in inhibiting HCV NS3 proteolytic activity.
Serum from an HCV-infected patient was obtained from Dr. T. Wright, San Francisco Hospital. An engineered full-length cDNA (compliment deoxyribonucleic acid) template of the HCV genome (BMS strain) was constructed from DNA fragments obtained by reverse transcription-PCR (RT-PCR) of serum RNA (ribonucleic acid) and using primers selected on the basis of homology between other genotype 1a strains. From the determination of the entire genome sequence, a genotype 1a was assigned to the HCV isolate according to the classification of Simmonds et al. (See P Simmonds, K A Rose, S Graham, S W Chan, F McOmish, B C Dow, E A Follett, P L Yap and H Marsden, J. Clin. Microbial., 31(6), 1493-1503 (1993)). […] The infectious clones, H77 (1a genotype) and J4L6S (1b genotype) were obtained from R. Purcell (NIH) and the sequences are published in Genbank (AAB67036, see Yanagi, M., Purcell, R. H., Emerson, S. U. and Bukh, J. Proc. Natl. Acad. Sci. USA. 94(16), 8738-8743 (1997); AF054247, see Yanagi, M., St Claire, M., Shapiro, M., Emerson, S. U., Purcell, R. H. and Bukh, J., Virology 244 (1), 161-172. (1998)).
The H77 and J4L6S strains were used for production of recombinant NS3/4A protease complexes. DNA encoding the recombinant HCV NS3/4A protease complex (amino acids 1027 to 1711) for these strains was manipulated as described by P. Gallinari et al. (see Gallinari P, Paolini C, Brennan D, Nardi C, Steinkuhler C, De Francesco R. Biochemistry. 38(17):5620-32, (1999)). Briefly, a three-lysine solubilizing tail was added at the 3′-end of the NS4A coding region. The cysteine in the P1 position of the NS4A-NS4B cleavage site (amino acid 1711) was changed to a glycine to avoid the proteolytic cleavage of the lysine tag. […]

[3] = test system: HCV replicon in HUH-7 cells; assay: HCV replicon FRET assay; type: cell-based, Hepatitis C virus (strain 1b); settings: Hepatitis C virus, Huh-7, 96 h
Text: An HCV replicon whole cell system was established as described by Lohmann V, Korner F, Koch J, Herian U, Theilmann L, Bartenschlager R., Science 285(5424):110-3 (1999). This system enabled us to evaluate the effects of our HCV Protease compounds on HCV RNA replication. Briefly, using the HCV strain 1b sequence described in the Lohmann paper (Assession number:AJ238799), an HCV cDNA was synthesized by Operon Technologies, Inc. (Alameda, Calif.), and the full-length replicon was then assembled in plasmid pGem9zf(+) (Promega, Madison, Wis.) using standard molecular biology techniques. […]
The HCV replicon FRET assay was developed to monitor the inhibitory effects of compounds described in the disclosure on HCV viral replication. […] After 4 days, cells were first assessed for cytotoxicity using alamar Blue (Trek Diagnotstic Systems) for a CC50 reading. The toxicity of compound (CC50) was determined by adding 1/10th volume of alamar Blue to the media incubating the cells. After 4 h, the fluorescence signal from each well was read, with an excitation wavelength at 530 nm and an emission wavelength of 580 nm, using the Cytofluor Series 4000 (Perspective Biosystems). […]

Structure (SMILES)	EC50 [1]	IC50 [2]	EC50 [3]
COc1cc2ccc3cc2cc1CCCCCCOC(=O)N[C@H]1CCCCCCC[C@@H]2C[C@@]2(C(=O)NS(=O)(=O)C2CC2)NC(=O)[C@@H]2C[C@]3(OC)CN2C1=O [Compound 2]	3.9 nM	5 nM	
COc1cc2ccc3cc2cc1C=CCC(C)(C)COC(=O)N[C@H]1CCCCC/C=C\[C@@H]2C[C@@]2(C(=O)NS(=O)(=O)C2CC2)NC(=O)[C@@H]2C[C@]3(OC)CN2C1=O (mixture of isomers) [Compound 1]	1.6 nM	1 nM	9.8 nM
COc1cc2ccc3cc2cc1CCCC(C)(C)CCOC(=O)N[C@H]1CCCCCCC[C@@H]2C[C@@]2(C(=O)NS(=O)(=O)C2CC2)NC(=O)[C@@H]2C[C@]3(OC)CN2C1=O [Compound 3]	2.7 nM	1 nM	

— US20100272674A1, “Hepatitis C Virus Inhibitors” (Bristol-Myers Squibb Company, priority 2008, published 2010)
